Test results reported in PubChem BioAssay AID330 (DTP/NCI, 2004).
Several values for one entry are separate records, joined by “and”; a condition that tells them apart may be missing. Identical values can stand only once. Toxic doses and inconclusive results are not listed.

System: P388 leukemia ip, CD2F1 mice, survival T/C
Assay: NCI In Vivo Anticancer Drug Screen. Data for tumor model P388 Leukemia (intraperitoneal) in CD2F1 (CDF1) mice
Settings: endpoint: median survival time, higher = longer survival
Outline: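 Mice carrying the transplanted tumor received test compound or vehicle. Survival was recorded in each group, and the value is the treated-group measurement divided by that of the vehicle-treated control group.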

[1] = dose: 60.0 mg/kg/injection, schedule: Q01DX005 (ip), vehicle: Klucel (hydroxypropylcellulose) (HPC)
[2] = dose: 120.0 mg/kg/injection, schedule: Q01DX005 (ip), vehicle: Klucel (hydroxypropylcellulose) (HPC)
[3] = dose: 60.0 mg/kg/injection, schedule: Q01DX005 (ip), vehicle: saline with Tween-80
[4] = dose: 120.0 mg/kg/injection, schedule: Q01DX005 (ip), vehicle: saline with Tween-80
[5] = dose: 240.0 mg/kg/injection, schedule: Q01DX005 (ip), vehicle: saline with Tween-80
[6] = dose: 25.0 mg/kg/injection, schedule: Q01DX009 (ip), vehicle: saline with Tween-80
[7] = dose: 50.0 mg/kg/injection, schedule: Q01DX009 (ip), vehicle: saline with Tween-80
[8] = dose: 100.0 mg/kg/injection, schedule: Q01DX009 (ip), vehicle: saline with Tween-80
[9] = dose: 200.0 mg/kg/injection, schedule: Q01DX009 (ip), vehicle: saline with Tween-80
[10] = dose: 50.0 mg/kg/injection, schedule: Q01DX005 (ip), vehicle: Klucel (hydroxypropylcellulose) (HPC)
[11] = dose: 100.0 mg/kg/injection, schedule: Q01DX005 (ip), vehicle: Klucel (hydroxypropylcellulose) (HPC)
[12] = dose: 200.0 mg/kg/injection, schedule: Q01DX005 (ip), vehicle: Klucel (hydroxypropylcellulose) (HPC)

## O=C1C2(CCCC13N=NCC3c1ccccc1)N=NCC2c1ccccc1 (configuration not stated)
[1]
  T/C: 93 % of control
[2]
  T/C: 88 % of control
dose: 240.0 mg/kg/injection, schedule: Q01DX005 (ip), vehicle: Klucel (hydroxypropylcellulose) (HPC)
  T/C: 93 % of control

## ICC1(CI)COC1
dose: 100.0 mg/kg/injection, schedule: Q01DX009 (ip), vehicle: Klucel (hydroxypropylcellulose) (HPC)
  T/C: 105 % of control
dose: 200.0 mg/kg/injection, schedule: Q01DX009 (ip), vehicle: Klucel (hydroxypropylcellulose) (HPC)
  T/C: 104 % of control
dose: 400.0 mg/kg/injection, schedule: Q01DX009 (ip), vehicle: Klucel (hydroxypropylcellulose) (HPC)
  T/C: 99 % of control

## Cc1ncc(CO)c(C2NCCS2)c1O (configuration not stated)
[3]
  T/C: 100 % of control
[4]
  T/C: 107 % of control
[5]
  T/C: 107 % of control

## CCCCCCC(=O)/C=C/c1ccc(OC(=O)c2ccc(OC)cc2)cc1
dose: 6.25 mg/kg/injection, schedule: Q01DX009 (ip), vehicle: saline with Tween-80
  T/C: 100 % of control
dose: 12.5 mg/kg/injection, schedule: Q01DX009 (ip), vehicle: saline with Tween-80
  T/C: 105 % of control
[6]
  T/C: 98 % of control
[7]
  T/C: 91 % of control
[8]
  T/C: 89 % of control

## O=C1Nc2ncnn2C1=O
[7]
  T/C: 108 % of control
[8]
  T/C: 111 % of control
[9]
  T/C: 99 % of control
dose: 400.0 mg/kg/injection, schedule: Q01DX009 (ip), vehicle: saline with Tween-80
  T/C: 96 % of control

## COc1cccc([B-]23OCC[N+]2(CNC(=O)c2ccccc2O)CCO3)c1 (configuration not stated)
[10]
  T/C: 106 % of control
[11]
  T/C: 104 % of control
[12]
  T/C: 112 % of control

## N/C(=C\c1cnc2ccccc2n1)c1ccccc1Cl
[1]
  T/C: 91 % of control
[2]
  T/C: 89 % of control

## OCC(O)C(O)C(O)C(O)c1nnc2n[nH]c(=S)n2n1 (configuration not stated)
dose: 25.0 mg/kg/injection, schedule: Q01DX001 (ip), vehicle: Klucel (hydroxypropylcellulose) (HPC)
  T/C: 100 % of control
dose: 50.0 mg/kg/injection, schedule: Q01DX001 (ip), vehicle: Klucel (hydroxypropylcellulose) (HPC)
  T/C: 98 % of control
dose: 100.0 mg/kg/injection, schedule: Q01DX001 (ip), vehicle: Klucel (hydroxypropylcellulose) (HPC)
  T/C: 100 % of control

## CC1C(C(=O)NCC(c2ccccc2)c2ccccc2)CC2CCCCN21 (configuration not stated)
dose: 15.0 mg/kg/injection, schedule: Q01DX005 (ip), vehicle: saline with Tween-80
  T/C: 96 % of control
dose: 30.0 mg/kg/injection, schedule: Q01DX005 (ip), vehicle: saline with Tween-80
  T/C: 92 % of control
[3]
  T/C: 91 % of control and 92 % of control

## Nc1[nH]n(-c2ccccc2)c(=O)c1C1c2ccccc2Sc2ccccc21
[3]
  T/C: 99 % of control
[4]
  T/C: 99 % of control
[5]
  T/C: 95 % of control

## Cc1cc2nc(C(C)C(=O)c3ccc(Cl)cc3)c(=O)[nH]c2cc1C (configuration not stated)
dose: 1.88 mg/kg/injection, schedule: Q01DX005 (ip), vehicle: saline with Tween-80
  T/C: 100 % of control
dose: 3.75 mg/kg/injection, schedule: Q01DX005 (ip), vehicle: saline with Tween-80
  T/C: 104 % of control
dose: 7.5 mg/kg/injection, schedule: Q01DX005 (ip), vehicle: saline with Tween-80
  T/C: 86 % of control

## N/N=C(/N)[Se]
dose: 6.25 mg/kg/injection, schedule: Q01DX009 (ip), vehicle: saline
  T/C: 101 % of control
dose: 12.5 mg/kg/injection, schedule: Q01DX009 (ip), vehicle: saline
  T/C: 90 % of control

## CCCN1C(C)=C(C#N)C2(C(=O)Nc3ccccc32)C(C#N)=C1C
[10]
  T/C: 99 % of control
[11]
  T/C: 102 % of control
[12]
  T/C: 102 % of control

## CS(=O)(=O)OC1CC(Cl)CO1 (configuration not stated)
dose: 100.0 mg/kg/injection, schedule: Q04DX003 (ip), vehicle: Klucel (hydroxypropylcellulose) (HPC)
  T/C: 100 % of control
dose: 200.0 mg/kg/injection, schedule: Q04DX003 (ip), vehicle: Klucel (hydroxypropylcellulose) (HPC)
  T/C: 100 % of control
dose: 400.0 mg/kg/injection, schedule: Q04DX003 (ip), vehicle: Klucel (hydroxypropylcellulose) (HPC)
  T/C: 103 % of control

## Cc1cc(C)n(-c2ccnc(N3CCOCC3)n2)n1
dose: 100.0 mg/kg/injection, schedule: Q01DX001 (ip), vehicle: saline
  T/C: 100 % of control
dose: 200.0 mg/kg/injection, schedule: Q01DX001 (ip), vehicle: saline
  T/C: 96 % of control
dose: 400.0 mg/kg/injection, schedule: Q01DX001 (ip), vehicle: saline
  T/C: 97 % of control

## Cc1ccc(N2C(=O)N(c3ccc(C)cc3)C3(Sc4ccccc4N3C)C2=O)cc1 (configuration not stated)
dose: 25.0 mg/kg/injection, schedule: Q04DX002 (ip), vehicle: saline with Tween-80
  T/C: 95 % of control
dose: 50.0 mg/kg/injection, schedule: Q04DX002 (ip), vehicle: saline with Tween-80
  T/C: 92 % of control
dose: 100.0 mg/kg/injection, schedule: Q04DX002 (ip), vehicle: saline with Tween-80
  T/C: 89 % of control

## O=C(CCl)NCc1ccc([N+](=O)[O-])cc1
[6]
  T/C: 108 % of control
[7]
  T/C: 112 % of control
[8]
  T/C: 108 % of control
[9]
  T/C: 103 % of control

## CC(SCCCCCCSC(C)C(=O)O)C(=O)O (configuration not stated)
[10]
  T/C: 110 % of control
[11]
  T/C: 97 % of control
[12]
  T/C: 95 % of control

## CC(=N\O)/C(C)=N/O.CC(=N\O)/C(C)=N/O.CCCC1CC[N-]CC1.CCCC1CC[N-]CC1.CCCC1CC[N-]CC1.CCCC1CC[N-]CC1.[Cl-].[Cl-].[Cl][Rh][Cl].[Rh+3]
dose: 2.78 mg/kg/injection, schedule: Q01DX009 (ip), vehicle: saline with Tween-80
  T/C: 120 % of control

## Cc1ccc(N2C(=O)CSC2=S)cc1Cl
dose: 50.0 mg/kg/injection, schedule: Q01DX009 (ip), vehicle: saline
  T/C: 103 % of control
dose: 100.0 mg/kg/injection, schedule: Q01DX009 (ip), vehicle: saline
  T/C: 94 % of control
dose: 200.0 mg/kg/injection, schedule: Q01DX009 (ip), vehicle: saline
  T/C: 100 % of control

## Cc1ccc([P+](CCN2C(=O)c3ccccc3C2=O)(c2ccc(C)cc2)c2ccc(C)cc2)cc1
dose: 0.39 mg/kg/injection, schedule: Q01DX009 (ip), vehicle: water
  T/C: 111 % of control
dose: 0.78 mg/kg/injection, schedule: Q01DX009 (ip), vehicle: water
  T/C: 121 % of control
dose: 1.56 mg/kg/injection, schedule: Q01DX009 (ip), vehicle: water
  T/C: 115 % of control
dose: 3.13 mg/kg/injection, schedule: Q01DX009 (ip), vehicle: water
  T/C: 121 % of control

## N=C(N)c1ccc2[nH]c(/C=C/c3cc4ccc(C(=N)N)cc4o3)cc2c1
dose: 100.0 mg/kg/injection, schedule: Q04DX003 (ip), vehicle: suspension in saline
  T/C: 170 % of control

## O=C(O)c1c2c(nc3ccccc13)CCC(C(=O)O)C2 (configuration not stated)
[3]
  T/C: 96 % of control
[4]
  T/C: 102 % of control
[5]
  T/C: 96 % of control

## CCN(CC)C1=Nc2ccccc2N(c2ccccc2)C(N2CCCCC2)=C1
dose: 12.5 mg/kg/injection, schedule: Q04DX002 (ip), vehicle: Klucel (hydroxypropylcellulose) (HPC)
  T/C: 99 % of control
dose: 25.0 mg/kg/injection, schedule: Q04DX002 (ip), vehicle: Klucel (hydroxypropylcellulose) (HPC)
  T/C: 99 % of control
dose: 50.0 mg/kg/injection, schedule: Q04DX002 (ip), vehicle: Klucel (hydroxypropylcellulose) (HPC)
  T/C: 101 % of control

## O=C(Nc1cccc(Cl)c1)OCC#CCCl
dose: 50.0 mg/kg/injection, schedule: Q01DX005 (ip), vehicle: saline + Tween-80 + alcohol
  T/C: 100 % of control
dose: 100.0 mg/kg/injection, schedule: Q01DX005 (ip), vehicle: saline + Tween-80 + alcohol
  T/C: 107 % of control
dose: 200.0 mg/kg/injection, schedule: Q01DX005 (ip), vehicle: saline + Tween-80 + alcohol
  T/C: 108 % of control

## Cc1cc(C)c(F)[c]([Hg][Br])c1N
dose: 0.78 mg/kg/injection, schedule: Q01DX005 (ip), vehicle: Klucel (hydroxypropylcellulose) (HPC)
  T/C: 89 % of control
dose: 1.56 mg/kg/injection, schedule: Q01DX005 (ip), vehicle: Klucel (hydroxypropylcellulose) (HPC)
  T/C: 92 % of control
dose: 6.25 mg/kg/injection, schedule: Q01DX005 (ip), vehicle: Klucel (hydroxypropylcellulose) (HPC)
  T/C: 90 % of control and 92 % of control
